Source: patent publication US20250313604A1, “PEPTIDE PHARMACEUTICALS FOR INSULIN RESISTANCE” (Mederis Diabetes LLC, priority 2014, published 2025)

What was measured:
[1] = in water; cited from earlier work
[2] = tested on: db/db mice; assay: In vivo assay in db/db mice (blood glucose, body weight, food consumption)
[3] = high dose (300 nmoles/kg) s.c., Days 2 and 3

In the case of `CCCCCCCCCCCCO[C@@H]1O[C@H](CO)[C@@H](O[C@H]2O[C@H](CO)[C@@H](O)[C@H](O)[C@H]2O)[C@H](O)[C@H]1O` [Dodecyl-β-D-maltoside], the CMC [1] is given as 0.17 mM.

In the case of `CCCCCCCCCCCCCCCCCCO[C@@H]1O[C@H](CO[C@H]2O[C@H](C(=O)NCCCC[C@H](NC(=O)[C@@H](NC(=O)[C@H](Cc3ccccc3)NC(=O)[C@H](CCC(=O)O)NC(=O)[C@@H]3CCCCNC(=O)CC[C@H](NC(=O)[C@H](CC(=O)O)NC(=O)[C@H](CC(C)C)NC(=O)[C@H](Cc4ccc(O)cc4)NC(=O)[C@H](CCCCN)NC(=O)[C@H](CO)NC(=O)[C@H](Cc4ccc(O)cc4)NC(=O)[C@H](CC(=O)O)NC(=O)[C@H](CO)NC(=O)[C@@H](NC(=O)[C@H](Cc4ccccc4)NC(=O)[C@@H](NC(=O)CNC(=O)[C@H](CCC(N)=O)NC(=O)C(C)(C)NC(=O)[C@@H](N)Cc4c[nH]cn4)[C@@H](C)O)[C@@H](C)O)C(=O)N[C@@H](CCC(N)=O)C(=O)N[C@@H](C)C(=O)N[C@@H](C)C(=O)N3)[C@@H](C)CC)C(=O)N[C@@H](Cc3c[nH]c4ccccc34)C(=O)N[C@@H](CC(C)C)C(=O)N[C@@H](CC(C)C)C(=O)N[C@@H](CCC(N)=O)C(=O)N[C@H](C(N)=O)[C@@H](C)O)[C@H](O)[C@H](O)[C@H]2O)[C@@H](O)[C@H](O)[C@H]1O` [EU-A1026, His1-Aib2-Gln3-Gly4-Thr5-Phe6-Thr7-Ser8-Asp9-Tyr10-Ser11-Lys12-Tyr13-Leu14-Asp15-Glu*16-Gln17 Ala18-Ala19-Lys*20-Glu21-Phe22-Ile23-Lys (N-omega (1-octadecyl beta-D-melibiouronyl)) 24-Trp25-Leu26-Leu27-Gln28-Thr29-NH2], the “db/db mice - Mean Blood Glucose” value ([2]; 300 nmole/kg s.c., 0 hr) is reported as 531 mg/dL, the “db/db mice - Mean Blood Glucose” value ([2]; 300 nmole/kg s.c., 10 hr) is reported as 399 mg/dL and the “db/db mice - Mean Blood Glucose” value ([2]; 300 nmole/kg s.c., 24 hr) is reported as 438 mg/dL. For the same compound, the “db/db mice - Mean Blood Glucose” value ([2]; 300 nmole/kg s.c., 48 hr) was 505 mg/dL, the “body weight changes against vehicle” value [2, 3] was “Significant body weight changes” and the “glucose levels versus liraglutide” value ([2]; low dose (100 nmoles/kg) s.c., 10 hours) was “significantly different from liraglutide”. The “body weight changes against vehicle” value ([2]; low dose (100 nmoles/kg) s.c., Days 3 and 4) was “Significant body weight changes”.

In the case of `CCCCCCCCCCO[C@@H]1O[C@H](C(=O)NCCCC[C@H](NC(=O)[C@@H](NC(=O)[C@H](Cc2ccccc2)NC(=O)[C@H](CCC(=O)O)NC(=O)[C@@H]2CCCCNC(=O)CC[C@H](NC(=O)[C@H](CC(=O)O)NC(=O)[C@H](CC(C)C)NC(=O)[C@H](Cc3ccc(O)cc3)NC(=O)[C@H](CCCCN)NC(=O)[C@H](CO)NC(=O)[C@H](Cc3ccc(O)cc3)NC(=O)[C@H](CC(=O)O)NC(=O)[C@H](CO)NC(=O)[C@@H](NC(=O)[C@H](Cc3ccccc3)NC(=O)[C@@H](NC(=O)CNC(=O)[C@H](CCC(N)=O)NC(=O)C(C)(C)NC(=O)[C@@H](N)Cc3c[nH]cn3)[C@@H](C)O)[C@@H](C)O)C(=O)N[C@@H](CCC(N)=O)C(=O)N[C@@H](C)C(=O)N[C@@H](C)C(=O)N2)[C@@H](C)CC)C(=O)N[C@@H](Cc2c[nH]c3ccccc23)C(=O)N[C@@H](CC(C)C)C(=O)N[C@@H](CC(C)C)C(=O)N[C@@H](CCC(N)=O)C(=O)N[C@H](C(N)=O)[C@@H](C)O)[C@@H](O)[C@H](O)[C@H]1O` [EU-A1167], the “db/db mice - Mean Blood Glucose” value ([2]; 250 nmole/kg s.c., 0 hr) is reported as 379 mg/dL, the “db/db mice - Mean Blood Glucose” value ([2]; 250 nmole/kg s.c., 10 hr) is reported as 171 mg/dL and the “db/db mice - Mean Blood Glucose” value ([2]; 250 nmole/kg s.c., 24 hr) is reported as 117 mg/dL. For the same compound, the “db/db mice - Mean Blood Glucose” value ([2]; 250 nmole/kg s.c., 48 hr) was 113 mg/dL.

For `CCCCCCCCCCCCCO[C@@H]1O[C@H](CO)[C@@H](OC2OC(CO)C(O)C(O)C2O)[C@H](O)[C@H]1O` (stereo in doubt) [Tridecyl maltoside], the CMC [1] is given as 0.03 mM.

For `CCCCCCCCCCCCCCO[C@@H]1O[C@H](CO)[C@@H](O[C@@H]2O[C@@H](CO)[C@H](O)[C@@H](O)[C@@H]2O)[C@H](O)[C@H]1O` (stereo in doubt) [Tetradecyl maltoside], the CMC [1] is given as 0.01 mM.

In the case of `CCCCCCCCO[C@@H]1O[C@H](CO)[C@@H](O[C@H]2O[C@H](CO)[C@@H](O)[C@H](O)[C@H]2O)[C@H](O)[C@H]1O` [Octyl maltoside], the CMC [1] is listed as 19.5 mM.

For `CCCCCCCCCCO[C@@H]1O[C@H](CO)[C@@H](O[C@H]2O[C@H](CO)[C@@H](O)[C@H](O)[C@H]2O)[C@H](O)[C@H]1O` [Decyl maltoside], the CMC [1] is listed as 1.8 mM.

In the case of `CCCCCCCCCCCCCCO[C@@H]1O[C@H](C(=O)NCCCC[C@H](NC(=O)[C@@H](NC(=O)[C@H](Cc2ccccc2)NC(=O)[C@H](CCC(=O)O)NC(=O)[C@@H]2CCCCNC(=O)CC[C@H](NC(=O)[C@H](CC(=O)O)NC(=O)[C@H](CC(C)C)NC(=O)[C@H](Cc3ccc(O)cc3)NC(=O)[C@H](CCCCN)NC(=O)[C@H](CO)NC(=O)[C@H](Cc3ccc(O)cc3)NC(=O)[C@H](CC(=O)O)NC(=O)[C@H](CO)NC(=O)[C@@H](NC(=O)[C@H](Cc3ccccc3)NC(=O)[C@@H](NC(=O)CNC(=O)[C@H](CCC(N)=O)NC(=O)C(C)(C)NC(=O)[C@@H](N)Cc3c[nH]cn3)[C@@H](C)O)[C@@H](C)O)C(=O)N[C@@H](CCC(N)=O)C(=O)N[C@@H](C)C(=O)N[C@@H](C)C(=O)N2)[C@@H](C)CC)C(=O)N[C@@H](Cc2c[nH]c3ccccc23)C(=O)N[C@@H](CC(C)C)C(=O)N[C@@H](CC(C)C)C(=O)N[C@@H](CCC(N)=O)C(=O)N[C@H](C(N)=O)[C@@H](C)O)[C@@H](O)[C@H](O)[C@H]1O` [EU-A994, His1-Aib2-Gln3-Gly4-Thr5-Phe6-Thr7-Ser8-Asp9-Tyr10-Ser11-Lys12-Tyr13-Leu14-Asp15-Glu*16-Gln17-Ala18-Ala19-Lys*20-Glu21-Phe22-Ile23-Lys(N-omega(1-tetradecylbeta-D-glucuronyl))24-Trp25-Leu26-Leu27-Gln28-Thr29-NH2], the “db/db mice - Mean Blood Glucose” value ([2]; 300 nmole/kg s.c., 0 hr) is reported as 554 mg/dL, the “db/db mice - Mean Blood Glucose” value ([2]; 300 nmole/kg s.c., 10 hr) is reported as 242 mg/dL and the “db/db mice - Mean Blood Glucose” value ([2]; 300 nmole/kg s.c., 24 hr) is reported as 209 mg/dL. For the same compound, the “db/db mice - Mean Blood Glucose” value ([2]; 300 nmole/kg s.c., 48 hr) was 385 mg/dL and the “body weight changes against vehicle” value [2, 3] was “Significant body weight changes”.

In the case of `CCCCCCCCCCCO[C@@H]1O[C@H](C(=O)NCCCC[C@H](NC(=O)[C@@H](NC(=O)[C@H](Cc2ccccc2)NC(=O)[C@H](CCC(=O)O)NC(=O)[C@@H]2CCCCNC(=O)CC[C@H](NC(=O)[C@H](CC(=O)O)NC(=O)[C@H](CC(C)C)NC(=O)[C@H](Cc3ccc(O)cc3)NC(=O)[C@H](CCCCN)NC(=O)[C@H](CO)NC(=O)[C@H](Cc3ccc(O)cc3)NC(=O)[C@H](CC(=O)O)NC(=O)[C@H](CO)NC(=O)[C@@H](NC(=O)[C@H](Cc3ccccc3)NC(=O)[C@@H](NC(=O)CNC(=O)[C@H](CCC(N)=O)NC(=O)C(C)(C)NC(=O)[C@@H](N)Cc3c[nH]cn3)[C@@H](C)O)[C@@H](C)O)C(=O)N[C@@H](CCC(N)=O)C(=O)N[C@@H](C)C(=O)N[C@@H](C)C(=O)N2)[C@@H](C)CC)C(=O)N[C@@H](Cc2c[nH]c3ccccc23)C(=O)N[C@@H](CC(C)C)C(=O)N[C@@H](CC(C)C)C(=O)N[C@@H](CCC(N)=O)C(=O)N[C@H](C(N)=O)[C@@H](C)O)[C@@H](O)[C@H](O)[C@H]1O` [EU-A1168], the “db/db mice - Mean Blood Glucose” value ([2]; 250 nmole/kg s.c., 0 hr) is reported as 380 mg/dL, the “db/db mice - Mean Blood Glucose” value ([2]; 250 nmole/kg s.c., 10 hr) is reported as 133 mg/dL and the “db/db mice - Mean Blood Glucose” value ([2]; 250 nmole/kg s.c., 24 hr) is reported as 169 mg/dL. The “db/db mice - Mean Blood Glucose” value ([2]; 250 nmole/kg s.c., 48 hr) was 164 mg/dL.

In the case of Sucrose dodecanoate, the CMC [1] is listed as 0.3 mM.

For `CCCCCCCCO[C@@H]1O[C@H](C(=O)NCCCC[C@H](NC(=O)[C@@H](NC(=O)[C@H](Cc2ccccc2)NC(=O)[C@H](CCC(=O)O)NC(=O)[C@@H]2CCCCNC(=O)CC[C@H](NC(=O)[C@H](CC(=O)O)NC(=O)[C@H](CC(C)C)NC(=O)[C@H](Cc3ccc(O)cc3)NC(=O)[C@H](CCCCN)NC(=O)[C@H](CO)NC(=O)[C@H](Cc3ccc(O)cc3)NC(=O)[C@H](CC(=O)O)NC(=O)[C@H](CO)NC(=O)[C@@H](NC(=O)[C@H](Cc3ccccc3)NC(=O)[C@@H](NC(=O)CNC(=O)[C@H](CCC(N)=O)NC(=O)C(C)(C)NC(=O)[C@@H](N)Cc3c[nH]cn3)[C@@H](C)O)[C@@H](C)O)C(=O)N[C@@H](CCC(N)=O)C(=O)N[C@@H](C)C(=O)N[C@@H](C)C(=O)N2)[C@@H](C)CC)C(=O)N[C@@H](Cc2c[nH]c3ccccc23)C(=O)N[C@@H](CC(C)C)C(=O)N[C@@H](CC(C)C)C(=O)N[C@@H](CCC(N)=O)C(=O)N[C@H](C(N)=O)[C@@H](C)O)[C@@H](O)[C@H](O)[C@H]1O` [EU-A992], the “db/db mice - Mean Blood Glucose” value ([2]; 250 nmole/kg s.c., 0 hr) was 405 mg/dL, the “db/db mice - Mean Blood Glucose” value ([2]; 250 nmole/kg s.c., 10 hr) was 104 mg/dL and the “db/db mice - Mean Blood Glucose” value ([2]; 250 nmole/kg s.c., 24 hr) was 112 mg/dL. The “db/db mice - Mean Blood Glucose” value ([2]; 250 nmole/kg s.c., 48 hr) was 130 mg/dL.
